Measurements reported in PMC12322260, “Anticancer activity of triterpene glycosides from the sea star Solaster pacificus” (Scientific Reports, 2025).

Columns and labels:
22Rv1 cells = test: MTT cytotoxicity assay; format: cell-based, human; details: Homo sapiens; 22Rv1, 48 h, mean ± SD
Text: (§1) The cell lines were purchased from ATCC (Manassas, VA, USA) or ECACC (Salisbury, UK). The following cell lines were used: Human prostate cancer cells LNCaP (ATCC; RRID:CVCL_0395), VCaP (ECACC; RRID:CVCL_2235), 22Rv1 (ATCC; RRID:CVCL_1045), PC3 (ATCC; RRID:CVCL_0035), and DU145 (ATCC; RRID:CVCL_0105); human prostate non-cancer cells PNT2 (ATCC; RRID:CVCL_2164) and RWPE-01 (ATCC; RRID:CVCL_3791). Human non-cancer embryonic kidney cells HEK293T (ECACC; RRID:CVCL_0063) and human fibroblast cells MRC-9 (ECACC; RRID:CVCL_2629). The docetaxel-resistant cells PC3-DR were generated by long-term treatment of human prostate cancer PC3 cells with sublethal concentrations of docetaxel as previously described[32] and were provided by Prof. Z. Culig (Innsbruck Medical University, Austria). All cell lines were recently authenticated by a commercial service (Multiplexion GmbH, Heidelberg, Germany) and were cultured as previously described[58],[59]. Cells were kept in culture for a maximum of three months and were routinely examined for bacterial, fungal, and mycoplasma infections.

HEK293T cells = test: MTT cytotoxicity assay; format: cell-based, human; details: Homo sapiens, HEK-293T, 48 h, mean ± SD
Text: as §1

LNCaP cells = test: MTT cytotoxicity assay; format: cell-based, human; details: Homo sapiens, 48 h, mean ± SD
Text: as §1

PC3 cells = test: MTT cytotoxicity assay; format: cell-based, human; details: Homo sapiens, PC-3; PC3, 48 h, mean ± SD
Text: as §1

PC3-DR cells [1] = test: MTT cytotoxicity assay; format: cell-based, human; details: Homo sapiens, 48 h, mean ± SD
Text: as §1

PNT2 cells = test: MTT cytotoxicity assay; format: cell-based, human; details: Homo sapiens; PNT2, 48 h, mean ± SD
Text: as §1

[2] = molecular target: P-glycoprotein (P-gp) in PC3-DR cells (Homo sapiens, UniProt P08183); test: P-gp activity, calcein-AM assay; details: 30 min
Text: A major contributor to docetaxel resistance is P-glycoprotein (also known as P-gp, MDR1), known to be overexpressed in PC3-DR cells. P-glycoprotein is a molecular efflux pump that actively expels various xenobiotic agents, including docetaxel, from cancer cells. Increased P-gp expression correlates with an increased IC50 for docetaxel, signifying enhanced drug resistance. […] In this assay, the non-fluorescent calcein-AM passively diffuses into cells, where it is hydrolyzed by cellular esterases into fluorescent calcein. Both calcein and its precursor are P-gp substrates and are actively transported out of P-gp-highly expressing cells (e.g. PC3-DR cells), which results in reduced intracellular fluorescence. P-gp inhibitors, such as tariquidar, block P-gp function, leading to calcein accumulation and an increase in fluorescence, which therefore can be used as a reliable indicator of reduced P-gp activity. A similar fluorescence increase is observed in the presence of docetaxel due to its competitive binding to the P-gp transporter alongside calcein[38].
Number of biological replicates n = 3. […] Number of biological replicates n = 3.
The evaluation of the activity of P-glycoprotein (P-gp) was performed using calcein-AM assay as described previously. […] The plates were incubated for 15 min, and the green calcein fluorescence was recorded using an Infinite F200PRO plate reader (TECAN). […]

phospho-ERK1/2 = test: Western blot analysis of MAP kinases; format: cell-based, human; details: 22Rv1, 2 h
Protocol: (§2) Fig. 3 Functional kinome profiling of STKs (serine/threonine kinases) in 22Rv1 cells and validation of results. (a) Expression of apoptotic markers. The cells were treated with CuC1 for the indicated time, and the expression of proteins was analyzed by Western blotting. (b, c) Functional kinome profiling. A heatmap displaying log2-transformed phosphorylation levels of 99 analyzed STK substrate peptides (b) and upstream kinase analysis, which predicted kinases affected by CuC1 (c). Values of the normalized kinase statistics represented by bars, where log2 < 0 indicates decreased kinase activity and log2 > 0 denotes increased activity. Statistically significant changes having a specificity score log2 > 1.3 are highlighted by red bars. Number of biological replicates n = 3. (d), Western blot analysis of MAP kinases. 22Rv1 cells were treated with CuC1 for 2 h and the MAPK expression was analyzed by Western blotting. β-actin was used as a loading control. The band intensity of the protein of interest was quantified using Image Lab software and normalized to the band intensity β-actin (a), or to the band intensity of non-phospho MAPK (d), and is indicated by red numbers. Full-size blots are presented in Supplementary Fig. S2.
(§3) Western blotting was performed as previously described. In brief, 22Rv1 cells were seeded in Petri dishes (1 × 10^6 cells/dish in 10 mL/dish of media), incubated overnight, and treated with the drug for a specific time. Cells were harvested by scratching, washed with cold PBS, and lysed with RIPA buffer supplemented with protease and phosphatase inhibitor cocktails. Protein lysates were separated using precast Mini-PROTEAN® TGX Stain-FreeTM gels (Bio-Rad, Hercules, CA, USA) and SDS-PAGE. Proteins were transferred on a PVDF membrane and detected using specified primary and secondary antibodies. The protein signals were visualized and detected using the ECL chemiluminescence system (Thermo Scientific, Rockford, IL, USA). […] The signal (band) intensity was quantified using Image Lab v. […]

phospho-JNK1/2 = test: Western blot analysis of MAP kinases; format: cell-based, human; details: 22Rv1, 2 h
Protocol: as §2, §3

phospho-p38 = test: Western blot analysis of MAP kinases; format: cell-based, human; details: 22Rv1, 2 h
Protocol: as §2, §3

PC3-DR cells [3] = details: TQD 50 nM
Protocol: (§4) Viability was evaluated using MTT assay, and IC50s were calculated using GraphPad Prism software. Number of biological replicates n = 3. […] Cells (6 × 10^3 cells/well in 100 μL/well of media) were plated in 96-well plates. The plates were incubated overnight, and the medium was replaced with fresh medium containing drugs at the indicated concentrations. The plates were further incubated for 48 h, unless otherwise stated, the solution of MTT reagent in PBS was added to each well, and cells were incubated for another 2–4 h to form formazan crystals. Then the media was removed and the plates were dried overnight. 50 μL of DMSO was added to each well to dissolve the formazan crystals. The absorbance of each well was measured using an Infinite F200PRO reader (TECAN, Männedorf, Switzerland). The cell viability was estimated as an inhibition concentration (IC50), which was calculated using GraphPad Prism software v.9.1.1 (GraphPad Software, San Diego, CA, USA). IC₅₀ values were determined by fitting the data to a nonlinear regression model (log[inhibitor] versus normalized response—variable slope).

PC3-DR cells [4] = test: cells; details: Homo sapiens, 48 h
Protocol: as §4

[5] = system: HT-29, RPMI-7951, and MDA-MB-231 cells; parameters: method as in PMID 33799442; details: nontoxic concentrations; cited from earlier work

Sequence of P-glycoprotein (P-gp) in PC3-DR cells (P08183 whole entry): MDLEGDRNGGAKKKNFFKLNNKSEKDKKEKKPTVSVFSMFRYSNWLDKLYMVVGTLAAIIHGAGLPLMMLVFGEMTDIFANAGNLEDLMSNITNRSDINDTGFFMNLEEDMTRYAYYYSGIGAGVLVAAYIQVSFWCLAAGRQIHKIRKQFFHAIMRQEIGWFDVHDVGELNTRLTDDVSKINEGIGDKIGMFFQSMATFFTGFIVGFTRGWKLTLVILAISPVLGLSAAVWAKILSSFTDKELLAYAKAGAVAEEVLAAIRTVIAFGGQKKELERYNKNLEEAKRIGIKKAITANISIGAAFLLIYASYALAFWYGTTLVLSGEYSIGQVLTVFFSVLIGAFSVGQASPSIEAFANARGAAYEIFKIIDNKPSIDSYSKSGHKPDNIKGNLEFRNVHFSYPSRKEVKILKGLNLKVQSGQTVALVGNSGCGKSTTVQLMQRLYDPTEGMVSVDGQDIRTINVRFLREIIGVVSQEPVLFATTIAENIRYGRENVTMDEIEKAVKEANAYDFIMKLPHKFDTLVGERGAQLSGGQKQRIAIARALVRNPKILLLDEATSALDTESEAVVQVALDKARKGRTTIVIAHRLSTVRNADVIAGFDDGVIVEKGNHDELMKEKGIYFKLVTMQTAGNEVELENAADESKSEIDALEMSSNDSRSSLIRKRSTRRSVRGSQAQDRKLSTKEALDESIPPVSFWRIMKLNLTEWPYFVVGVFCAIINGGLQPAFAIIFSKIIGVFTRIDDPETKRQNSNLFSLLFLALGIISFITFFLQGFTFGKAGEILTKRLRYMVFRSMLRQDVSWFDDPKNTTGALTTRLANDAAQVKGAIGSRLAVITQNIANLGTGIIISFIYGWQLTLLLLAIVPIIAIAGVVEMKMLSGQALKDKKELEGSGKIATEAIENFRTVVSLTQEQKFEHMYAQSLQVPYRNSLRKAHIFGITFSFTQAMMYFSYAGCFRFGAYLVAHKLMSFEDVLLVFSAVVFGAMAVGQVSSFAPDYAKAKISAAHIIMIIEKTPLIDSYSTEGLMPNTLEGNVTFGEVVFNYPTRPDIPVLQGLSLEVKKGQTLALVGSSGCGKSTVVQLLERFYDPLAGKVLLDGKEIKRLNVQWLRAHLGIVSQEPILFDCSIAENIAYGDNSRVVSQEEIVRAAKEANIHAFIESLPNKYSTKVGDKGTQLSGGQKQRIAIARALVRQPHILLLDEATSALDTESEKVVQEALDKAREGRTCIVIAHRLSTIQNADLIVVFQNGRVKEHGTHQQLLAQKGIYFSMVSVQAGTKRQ

What does the source list for `CO[C@@H]1[C@@H](O)[C@H](O[C@@H]2[C@@H](O)[C@H](O[C@H]3[C@H](O)[C@@H](O[C@@H]4OC[C@@H](O)[C@H](O)[C@H]4O)[C@H](O[C@H]4[C@H](O[C@H]5CC[C@]6(C)[C@@H]7CCC89C(=O)O[C@@](C)(/C=C\C=C(C)C)[C@H]8[C@@H](OC(C)=O)C[C@@]9(C)C7=CC[C@H]6C5(C)C)OC[C@@H](O)[C@@H]4O)O[C@@H]3C)O[C@H](CO)[C@H]2O)OC[C@H]1O` (some centres unmarked) [CuC1, cucumarioside C1]?
IC50 (22Rv1 cells): 246 ± 17 nM; IC50 (HEK293T cells): 660 ± 50 nM; IC50 (LNCaP cells): 3000 ± 540 nM; IC50 (PC3 cells): 1590 ± 120 nM; IC50 (PC3-DR cells [1]): 5690 ± 780 nM; IC50 (PNT2 cells): 754 ± 58 nM; P-gp activity (calcein-AM efflux) ([2]; glycosides at non-cytotoxic concentrations, controls TQD 50 nM, Doce 100 nM): did not result in any significant changes in calcein-AM efflux; intracellular calcein fluorescence ([2]; high cytotoxic concentrations): increase of intracellular fluorescence; active (phosphorylated) ERK1/2 (phospho-ERK1/2): inhibition of active (phosphorylated) forms; active (phosphorylated) JNK1/2 (phospho-JNK1/2): but not JNK1/2; active (phosphorylated) p38 (phospho-p38): inhibition of active (phosphorylated) forms; effect of co-treatment with tariquidar on cytotoxicity (PC3-DR cells [3]): did not alter cytotoxicity; IC50 (PC3-DR cells [4]): 5690 ± 330 nM; colony formation [5]: strongly suppressed the colony formation
